Consider three molecules from ChEMBL document CHEMBL1201862, “PubChem BioAssay data set” (2004).

Each structure is given as a SMILES string.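 The compound was tested at five concentrations on cells cultured in 96-well plates, with a 48-hour exposure period. GI50: concentration for 50% inhibition of growth.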 Calls of active or inactive are those of the source. Cut-off read from the data, not from the text of the source: active = GI50 up to about 1.1 µM and inactive = higher.

Some test systems named below: Malme-3M; M19-MEL; NCI-H23; Hs-578T; HCT-116; SW-620; BT-549; MCF7; LOX IMVI; OVCAR-8; KM12; SNB-75; EKVX; SK-OV-3; 786-0; MDA-N; SF-295; HCC 2998; OVCAR-4; T47D.
Holding throughout (experiment): inhibition of tumour cell growth, NCI panel, 48 h

Take `CCN(CC)CC(O)CNc1ccc(NCC2CO2)c2c1C(=O)c1ccccc1C2=O` (stereo not drawn): the GI50 was 1.93 µM (inactive) with Malme-3M; 0.125 µM (active) in the assay with M19-MEL; 0.499 µM (active) in the assay with NCI-H23; 1.14 µM (inactive) in the assay on Hs-578T; 0.0466 µM (active) with HCT-116; 0.0327 µM (active) in the assay on SW-620. For the same molecule, the GI50 with BT-549 is 0.194 µM (active); in the assay with MCF7 it was 0.0109 µM (active); with LOX IMVI, < 0.01 µM (active); with OVCAR-8, 0.0661 µM (active); in the assay on KM12, 0.294 µM (active); with SNB-75, 1.6 µM (inactive). For the same molecule, the GI50 is 1.74 µM (inactive) in the assay on EKVX; 1.86 µM (inactive) with SK-OV-3; 0.186 µM (active) in the assay on 786-0; 0.323 µM (active) with MDA-N; 1.05 µM (active) in the assay with SF-295; 1.19 µM (inactive) with HCC 2998. Further, the GI50 in the assay with OVCAR-4 was 1.18 µM (inactive).

On to `Cc1ccc([S+](c2ccccc2)c2cc(C)ccc2C)cc1.O=C(OC(C(=O)[O-])C(OC(=O)c1ccccc1)C(=O)O)c1ccccc1` (stereo not drawn), for which the GI50 is 44.9 µM (inactive) in the assay on Malme-3M; 5.41 µM (inactive) with M19-MEL; 3.82 µM (inactive) in the assay on NCI-H23; 5.12 µM (inactive) in the assay with Hs-578T; 3.49 µM (inactive) in the assay with HCT-116; 7.89 µM (inactive) with SW-620. Moreover, the GI50 in the assay on BT-549 was 3.37 µM (inactive); in the assay on MCF7 it was 4.88 µM (inactive); with LOX IMVI it was 6.85 µM (inactive); in the assay with OVCAR-8, 6.7 µM (inactive); with KM12 it was 3.91 µM (inactive); with SNB-75 it was 8.09 µM (inactive). Further, the GI50 in the assay on EKVX is > 100 µM (inactive); in the assay with T47D it was 6.98 µM (inactive); with SK-OV-3 it was 16.9 µM (inactive); with 786-0, 26.2 µM (inactive); in the assay on MDA-N, 3.89 µM (inactive); in the assay with SF-295, 11.9 µM (inactive). Moreover, the GI50 was 7.46 µM (inactive) in the assay on HCC 2998 and 46 µM (inactive) in the assay with OVCAR-4.

With `CCCCCCCCC/C=C1\CCC(CN2CCOCC2)C1=O` (stereo not drawn), the GI50 with Malme-3M was 7.08 µM (inactive); with M19-MEL, 3.28 µM (inactive); in the assay with NCI-H23 it was 3.9 µM (inactive); in the assay with Hs-578T, 1.94 µM (inactive); with HCT-116, 1.75 µM (inactive); in the assay on SW-620, 2.28 µM (inactive). Further, the GI50 in the assay with BT-549 is 2.08 µM (inactive); in the assay with MCF7, 1.03 µM (active); in the assay with LOX IMVI it was 0.855 µM (active); in the assay with OVCAR-8, 1.82 µM (inactive); in the assay with KM12 it was 2.17 µM (inactive); with SNB-75, 6.17 µM (inactive). Moreover, the GI50 in the assay on EKVX was 14.8 µM (inactive); with SK-OV-3, 17.3 µM (inactive); in the assay on 786-0, 1.3 µM (inactive); in the assay on MDA-N, 2.64 µM (inactive); in the assay with SF-295, 7.48 µM (inactive); with HCC 2998, 6.9 µM (inactive). In addition, the GI50 with OVCAR-4 was 3.72 µM (inactive).
